Assay results as given in paper PMC8761912, “Cryptosporidium parvum Pyruvate Kinase Inhibitors With in vivo Anti-cryptosporidial Efficacy” (Frontiers in Microbiology, 2022).

Key:
C. parvum [1] = assay: In vivo efficacy in C. parvum-infected IFN-γ KO mice, fecal oocysts load by qPCR; set-up: species or system Cryptosporidium parvum; settings: paromomycin 1,000 mg/kg oral once daily from day 3 PI
Method: (§1) Eight weeks old male interferon-gamma knockout (IFN-γ KO) mice (B6.129S7-Ifng^TM1Ts/J) were purchased from The Jackson Laboratory, United States, and allowed to quarantine and acclimatize for 1 week before the commencement of experiments. Before the start of the infection assays in mice, the tolerability of each inhibitor was determined by daily oral gavage with varying dosages (0–10 mg/kg mouse bodyweight) in groups of mice (n = 3 mice per group) for 8 days. During this period, mice were monitored daily for any changes in physical and mental activity, feeding, body weight, body temperature, fur condition, and body posture. […] Mice were divided into infected and uninfected groups (n = 3 mice per group) and each individual mouse was housed in a separate cage lined with sterile gauze bedding. Each mouse from the infected group was infected by oral gavage administration of 10^4 C. parvum AUCP-1 isolate oocysts suspended in 50 μl of PBS. Beginning day 3 PI, groups of mice were orally treated with CpPyK inhibitors (at the specified doses), sham (100 μl of 5% DMSO in PBS), or 1,000 mg/kg paromomycin (in sterile water) once daily for a total of 8 days. Fecal pellets were collected daily in individual sterile 15 ml tubes, and submerged in an equivalent volume of PBS containing a cocktail of penicillin (100 units/ml), streptomycin (100 μg/ml), chloramphenicol (34 μg/ml), and amphotericin (0.25 μg/ml), and stored at 4°C until use. Three independent replicate infection assays were performed. Mice were sacrificed at day 11 PI, and 5 cm of the distal small intestine just anterior to the cecum was resected and submerged in 10% neutral buffered formalin and submitted for histopathological processing in the Comparative Biosciences Histology Laboratory at the University of Illinois at Urbana-Champaign. Briefly, intestinal tissues preserved in 10% neutral buffered formalin were washed in 70% ethanol, embedded in paraffin, and sectioned transversely at a thickness of 5 μm. Sections were stained with hematoxylin and eosin. The slides were imaged using a Zeiss microscope fitted with a color camera.
DNA was isolated from 250 mg of feces collected from individual mice using the QIAamp® PowerFecal® Pro DNA kit (Qiagen, United States) following the manufacturer’s protocol. Oocysts load per gram of feces was measured by quantitative real time PCR (qPCR) analysis of the Cp18s rRNA gene (GenBank accession number AF164102) using gene-specific primers: 5′-[…]-3′ (Forward) and 5′-[…]-3′ (Reverse), described previously ([Parr et al., 2007]). To generate a quantification standard curve, fecal samples were obtained from uninfected mice and spiked with 10^8 C. parvum oocysts per gram of feces, followed by isolation of DNA as described above. Ten-fold serial dilutions of the extracted DNA were made and used as quantification standards for qPCR. C. parvum oocysts load quantification for the test mice was performed using DNA samples from the infected feces. Each 20 μl qPCR reaction contained 10 μl of PowerUp™ SYBR™ Green Master Mix (Applied Biosystems, United States), 500 nM of each primer, and 2 μl of DNA template. After 2 min of initial denaturation at 95°C, 40 cycles of denaturation at 95°C for 15 sec and annealing/extension at 60°C for 1 min were performed in a 7500 Real-Time PCR System (Applied Biosystems, United States). The oocyst load per gram of feces was derived by the 7500-system software using the generated quantification standard curves (Supplementary Figure 1).

C. parvum [2] = assay: Histopathology of distal small intestine of C. parvum-infected IFN-γ KO mice; format: in vivo, Cryptosporidium parvum; settings: 1,000 mg/kg daily oral from day 3 PI, sacrificed day 11 PI
Method: as §1

C. parvum [3] = tested on: C. parvum; set-up: method as in Li et al., 2019; settings: reported value; ref Li et al., 2019; read-out: in vitro anti-Cryptosporidium EC50; cited from earlier work

NC[C@@H]1O[C@H](O[C@H]2[C@@H](O)[C@H](O[C@@H]3[C@@H](O)[C@H](N)C[C@H](N)[C@H]3O[C@H]3O[C@H](CO)[C@@H](O)[C@H](O)[C@H]3N)O[C@@H]2CO)[C@H](N)[C@@H](O)[C@@H]1O [Paromomycin, reference compound]
oocysts load by day 9 PI vs other treatments and untreated group (C. parvum [1]): significantly (P < 0.05) lower oocysts loads
intestinal pathology (histology, distal small intestine) (C. parvum [2]): notably reduced pathological changes
EC50 (C. parvum [3]): 450 µM
